Experimental data as given in US20060205028A1, “Active-site titration of glycosyl hydrolases” (Novozymes A/S, priority 2003, published 2006).

System: xylanase Shearzyme
Assay: Burst active site titration of xylanase
Type: biochemical
Conditions: for Burst B: pH 5.0, room temperature
Method: The synthesized burst active site titrant 2,4-dinitrophenyl 2-deoxy-2-flouro-β-D-xylopyranoside was dissolved in Milli Q water. 100 μl dissolved titrant was mixed with 50 μl assay buffer (50 mM sodium acetate, 0.0225% Brij 35, pH 5.0) and 50 μl of a purified sample of the commercial xylanase Shearzyme (available from Novozymes) diluted in Milli Q water in the wells of a microtiter plate. Final concentrations of 2,4-dinitrophenyl 2-deoxy-2-flouro-β-D-xylopyranoside were 0.5 mM and 1 mM, whereas the xylanase was added to give final absorbances at 280 nm of 13.4, 6.7 and 3.3. After mixing, absorbance was read at 405 nm at room temperature every 7 min for 30 hours using a SpectraMax Plus (Molecular Devices) microtiter plate reader. After subtraction of absorbances read in wells with same concentration of titrant but without enzyme, the measurements were fitted to the equation: A405=B*(1−exp(−(t+LT)*ln(2)/T1/2))+S*(t+LT)
where A405 is the absorbance at 405 nm, B is the burst in absorbance at 405 nm, t is the time from first measurement of absorbance, LT is the lag time from mixing of the reagents to first measurement of absorbance, T1/2 is the half time for the exponential burst phase and S is the slope due to hydrolysis of the enzyme 2-deoxy-2-fluoro-β-D-xylopyranose complex.

[1] = Xylanase A280 3.3, titrant 0.5 mM
[2] = Xylanase A280 3.3, titrant 1 mM
[3] = Xylanase A280 6.7, titrant 0.5 mM
[4] = Xylanase A280 6.7, titrant 1 mM
[5] = Xylanase A280 13.4, titrant 0.5 mM
[6] = Xylanase A280 13.4, titrant 1 mM

With `O=[N+]([O-])c1ccc(O[C@@H]2OC[C@@H](O)[C@H](O)[C@H]2F)c([N+](=O)[O-])c1` [2,4-dinitrophenyl 2-deoxy-2-flouro-β-D-xylopyranoside] the “Slope S (hydrolysis of the enzyme 2-deoxy-2-fluoro-β-D-xylopyranose complex)” value (“Slope S” for short) [1] was 0.00 A405/h, the “Burst B” value [1] was 0.24 A405 and the “Slope S” value [2] was 0.00 A405/h. For the same compound, the “Burst B” value [2] was 0.23 A405, the “Slope S” value [3] was 0.00 A405/h and the “Burst B” value [3] was 0.47 A405. For the same compound, the “Slope S” value [4] was 0.00 A405/h, the “Burst B” value [4] was 0.48 A405 and the “Slope S” value [5] was 0.00 A405/h. For the same compound, the “Burst B” value [5] was 0.84 A405, the “Slope S” value [6] was 0.00 A405/h and the “Burst B” value [6] was 0.90 A405.
